According to patent US20020107302A1, “Monomeric dye inkjet printing ink formulations for invisible marking / identification” (priority 2000, published 2002):

Assay: Solubility or dispersibility of monomeric dye in vehicle systems
[1] = 50/50 acetone/water, 600 ppm dye
[2] = Methyl ethyl ketone, 600 ppm dye
[3] = Water with 1% ammonium hydroxide, 600 ppm dye
[4] = Water, 0.06% (by weight) or 600 ppm dye

COC(=O)c1cc([O][Al]2[n]3c4c5ccccc5c3/N=C3N=C(/N=c5/c6ccccc6/c([n]52)=N/C2=NC(=N\4)/c4ccccc42)c2ccccc2\3)cc(C(=O)OC)c1 [Dye II, Aluminum phthalocyanine(3,5-dicarbo-methoxyphenoxide)]
Solubility or Dispersibility [1]: Partially Soluble
Solubility or Dispersibility (Acetone, 600 ppm dye): Partially Soluble
Solubility or Dispersibility (Ethanol, 600 ppm dye): Soluble
Solubility or Dispersibility (Ethyl acetate, 600 ppm dye): Partially Soluble
Solubility or Dispersibility (Methyl acetate, 600 ppm dye): Insoluble
Solubility or Dispersibility [2]: Partially Soluble
Solubility or Dispersibility (Propylene glycol, 600 ppm dye): Soluble
Solubility or Dispersibility [3]: Insoluble
Solubility or Dispersibility [4]: Insoluble

CCCCC(CC)COC(=O)c1ccc(Oc2cccc3c2-c2nc-3nc3[nH]c(nc4nc(nc5[nH]c(n2)c2cccc(Oc6ccc(C(=O)OCC(CC)CCCC)cc6)c52)-c2cccc(Oc5ccc(C(=O)OCC(CC)CCCC)cc5)c2-4)c2cccc(Oc4ccc(C(=O)OCC(CC)CCCC)cc4)c32)cc1 [Dye III, 1(4),8(11),15(18),22(2S)-tetraks((4-(2-ethylhexoxy)carbonyl)phenoxy)phthalocyanine]
Solubility or Dispersibility [1]: Insoluble
Solubility or Dispersibility (Acetone, 600 ppm dye): Partially Soluble
Solubility or Dispersibility (Ethanol, 600 ppm dye): Insoluble
Solubility or Dispersibility (Ethyl acetate, 600 ppm dye): Soluble
Solubility or Dispersibility (Methyl acetate, 600 ppm dye): Soluble
Solubility or Dispersibility [2]: Partially Soluble
Solubility or Dispersibility (Propylene glycol, 600 ppm dye): Insoluble
Solubility or Dispersibility [3]: Insoluble
Solubility or Dispersibility [4]: Insoluble

CN1C(=CC=CC=CC=CC2=[N+](C)c3ccc4ccccc4c3C2(C)C)C(C)(C)c2c1ccc1ccccc21.[O-][Cl+3]([O-])([O-])[O-] [Dye IV, 1,1,3,3,3,3-Hexamethyl-4,4,5,5-dibenzo-2,2-indotricarbocyanine perchlorate]
Solubility or Dispersibility [1]: Soluble
Solubility or Dispersibility (Acetone, 600 ppm dye): Soluble
Solubility or Dispersibility (Ethanol, 600 ppm dye): Soluble
Solubility or Dispersibility (Ethyl acetate, 600 ppm dye): Soluble
Solubility or Dispersibility (Methyl acetate, 600 ppm dye): Soluble
Solubility or Dispersibility [2]: Soluble
Solubility or Dispersibility (Propylene glycol, 600 ppm dye): Soluble
Solubility or Dispersibility [3]: Insoluble
Solubility or Dispersibility [4]: Insoluble

CCN1C(=CCC2CCC(C=CC3Sc4ccc(Cl)cc4N3CC)=C2N(c2ccccc2)c2ccccc2)Sc2ccc(Cl)cc21 (centres unmarked) [Dye V, 5,5-Dichloro-11-(diphenylamino)-3,3-diethyl-10,12-ethylenethiatri-carbocyanine perchlorate]
Solubility or Dispersibility [1]: Soluble
Solubility or Dispersibility (Acetone, 600 ppm dye): Soluble
Solubility or Dispersibility (Ethanol, 600 ppm dye): Soluble
Solubility or Dispersibility (Ethyl acetate, 600 ppm dye): Insoluble
Solubility or Dispersibility (Methyl acetate, 600 ppm dye): Partially Soluble
Solubility or Dispersibility [2]: Soluble
Solubility or Dispersibility [3]: Insoluble
Solubility or Dispersibility [4]: Insoluble
